Source: patent publication US20140106440A1, “ENHANCED ENZYMATIC CO2 CAPTURE TECHNIQUES ACCORDING TO SOLUTION PKA, TEMPERATURE AND/OR ENZYME CHARACTER” (CO2 SOLUTIONS INC., priority 2011, published 2014)
Where “and” joins values, the source holds several entries; their conditions need not be identical. Equal entries are not always repeated. Where two headings read alike, the source gives them in different places.

Key:
[1] = forward reaction with CO2; 2 kmol/m^3 MDEA solution at 298 K; cited from earlier work
[2] = Second-order kinetic rate constant of the reaction between alkanolamine and CO2 (no enzyme); type: physicochemical
[3] = cited from earlier work

Question: What does the source list for `O` [OH^−, hydroxide]?
Answer: 1st order rate constant [1]: 23.8 s⁻¹; 2nd order rate constant [1]: 8.35 m^3mol^−1s^−1

Question: Which “k2, second-order kinetic rate constant of the reaction between amine and CO2” value (“k2, second-order kinetic rate constant” for short) [2] does the source give for `CC(O)CN(CC(C)O)CC(C)O` (stereo not shown) [TIPA, tri-isopropanolamine] here?
Answer: 1.02 m^3 kmol^−1 s^−1 and 0.79 m^3 kmol^−1 s^−1

Question: Which “1st order rate constant” value [1] does the source give for `O` [H2O, water] here?
Answer: 0.026 s⁻¹

Question: Which “k2, second-order kinetic rate constant” value ([2]; amine concentration 1.0 kmol m^−3) does the source give for `CN(C)CCO` [DMMEA, dimethylethanolamine] here?
Answer: 19.5 m^3 kmol^−1 s^−1

Question: And the “k2, second-order kinetic rate constant” value ([2]; amine concentration 2.0 kmol m^−3)?
Answer: 18.8 m^3 kmol^−1 s^−1

Question: What about the pKa ([3]; Table 3) of the same compound?
Answer: 9.2

Question: What about the pKa ([3]; Table 4) of the same compound?
Answer: 9.2

Question: What about the pKa ([3]; Table 14) of the same compound?
Answer: 9.22

Question: With `CCN(CC)CCO` [DEMEA, diethylethanolamine] as the compound, how does the “k2, second-order kinetic rate constant” value [2] read?
Answer: 33.0 m^3 kmol^−1 s^−1 and 35.5 m^3 kmol^−1 s^−1 and 33.1 m^3 kmol^−1 s^−1
